Ends that are not written are not given here.
System: STAT5
Test: HEK293T Stat5 reporter assay of FKBP switches lacking JAK-binding motifs or cytotail tyrosines (Example 3B)
Format: cell-based
Settings: 5 hours post-treatment, compared to positive control FKBP switch TpoR(478-582)/IL7R(316-459), FIG. 5B
Text: To identify components essential for the inducible chimeric cytokine receptor to signal, we generated FKBP switches that lacked either the JAK-binding domains or tyrosine residues in the cytotail domain. Specifically, either one or both JAK-binding motifs from TpoR(478-582) were replaced with glycine linkers, or all or a single (i.e. Y449) tyrosine residue(s) in the IL7R(316-459) cytotail was mutated to phenylalanine. The term “switch” as used in the Example section refers to the inducible chimeric cytokine receptor. For example, an “FKBP switch” as used herein is an inducible chimeric cytokine receptor comprising FKBP as the dimerization domain.
A HEK293T cell reporter assay was used to test how each of these domains affected cytokine signaling. Briefly, 20,000 HEK293T cells were plated into each well of a poly-L-lysine-coated 96-well flat-bottom plate and allowed to adhere overnight. […] 24 hours after transfection, cells were either left untreated, or treated with the indicated concentrations of AP1903 (Apex Bio) diluted in serum-free media, and Stat reporter activity was determined 5 hours post-treatment using the Dual-Glo Luciferase Assay System (Promega). […]

AP1903-induced Stat5 reporter activity: abrogates Stat5 activity
Substance: IL7R(424-459; Y456F): FKBP switch (Example 16) cytotail said to abrogate Stat5 activity, used as comparator (GILTLNPVAQGQPILTSLGSNQEEAYVTMSSFFQNQ; also: FKBP switch fusion; UniProt P16871 424-459, looked up, variant Y456F)
